In brackets after ≈: the same amount, converted by molar mass. One block for each molecule: values may come before it.
Assays:
[1] = target: T1, Receptor tyrosine-protein kinase erbB-2 (Homo sapiens, UniProt P04626); experiment: Inhibition of full-length HER2 phosphorylation transfected in human MCF-7 cl.24 cells after 4 hrs by laser scanning fluorescence microplate cytometry; assay type: cell-based
[2] = target: T1, Receptor tyrosine-protein kinase erbB-2; experiment: Inhibition of human HER2 kinase domain expressed in baculovirus/Sf21 system by ELISA
[3] = tested on: LoVo; experiment: Antitumor activity against human LoVo cells xenografted in mouse assessed as tumor growth inhibition at 100 mg/kg, po qd; assay type: functional; settings: read-out: TGI
[4] = AUC in mouse at 50 mg/kg, po; assay type: ADME, organism-based; set-up: dose 50 mg/kg, route oral; settings: plasma
[5] = Intrinsic clearance in human hepatocytes assessed per million cells; assay type: ADME, cell-based, Hepatocyte; settings: read-out: CLH
[6] = Bioavailability in dog at 2 mg/kg, po and 1 mg/kg, iv; assay type: ADME, organism-based, Canis lupus familiaris; settings: in vivo
[7] = Volume of distribution at steady state in dog at 2 mg/kg, po and 1 mg/kg, iv; assay type: ADME, organism-based, Canis lupus familiaris; settings: in vivo, read-out: Vdss
[8] = Clearance in dog at 2 mg/kg, po and 1 mg/kg, iv; assay type: ADME, organism-based, Canis lupus familiaris; settings: in vivo
[9] = Bioavailability in AP-Wistar rat at 5 mg/kg, po and 2 mg/kg, iv; assay type: ADME, organism-based; settings: in vivo
[10] = Volume of distribution at steady state in AP-Wistar rat at 5 mg/kg, po and 2 mg/kg, iv; assay type: ADME, organism-based; settings: in vivo, read-out: Vdss
[11] = Clearance in AP-Wistar rat at 5 mg/kg, po and 2 mg/kg, iv; assay type: ADME, organism-based; settings: in vivo
[12] = Aqueous solubility of the compound in phosphate buffer at pH 6.8; assay type: physicochemical
[13] = Apparent permeability from apical to basolateral side of human Caco2 cells at 10 uM; assay type: ADME, cell-based; settings: Caco-2
[14] = Lipophilicity, log D of the compound at pH 7.4; assay type: physicochemical; settings: buffer
[15] = Fraction unbound in human plasma; assay type: ADME, cell-free
[16] = target: Cytochrome P450 2C19 (Homo sapiens, UniProt P33261); experiment: Inhibition of CYP2C19 (unknown origin); assay type: ADME
Sequence of Cytochrome P450 2C19 (P33261 whole entry): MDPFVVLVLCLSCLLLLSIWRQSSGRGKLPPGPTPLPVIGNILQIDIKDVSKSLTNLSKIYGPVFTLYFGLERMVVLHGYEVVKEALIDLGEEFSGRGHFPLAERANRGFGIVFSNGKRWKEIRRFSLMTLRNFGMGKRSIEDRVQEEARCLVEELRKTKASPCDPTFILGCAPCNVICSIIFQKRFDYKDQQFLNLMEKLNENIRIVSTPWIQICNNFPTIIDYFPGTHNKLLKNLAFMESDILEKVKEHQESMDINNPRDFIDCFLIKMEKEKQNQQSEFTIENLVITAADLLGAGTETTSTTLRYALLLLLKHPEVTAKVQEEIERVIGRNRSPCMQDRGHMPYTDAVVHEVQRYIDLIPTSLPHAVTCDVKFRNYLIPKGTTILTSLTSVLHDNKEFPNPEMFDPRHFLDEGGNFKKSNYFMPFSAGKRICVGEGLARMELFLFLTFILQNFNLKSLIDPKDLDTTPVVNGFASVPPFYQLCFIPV

[17] = target: Cytochrome P450 2D6 (Homo sapiens, UniProt P10635); experiment: Inhibition of CYP2D6 (unknown origin); assay type: ADME
Sequence of Cytochrome P450 2D6 (P10635 whole entry): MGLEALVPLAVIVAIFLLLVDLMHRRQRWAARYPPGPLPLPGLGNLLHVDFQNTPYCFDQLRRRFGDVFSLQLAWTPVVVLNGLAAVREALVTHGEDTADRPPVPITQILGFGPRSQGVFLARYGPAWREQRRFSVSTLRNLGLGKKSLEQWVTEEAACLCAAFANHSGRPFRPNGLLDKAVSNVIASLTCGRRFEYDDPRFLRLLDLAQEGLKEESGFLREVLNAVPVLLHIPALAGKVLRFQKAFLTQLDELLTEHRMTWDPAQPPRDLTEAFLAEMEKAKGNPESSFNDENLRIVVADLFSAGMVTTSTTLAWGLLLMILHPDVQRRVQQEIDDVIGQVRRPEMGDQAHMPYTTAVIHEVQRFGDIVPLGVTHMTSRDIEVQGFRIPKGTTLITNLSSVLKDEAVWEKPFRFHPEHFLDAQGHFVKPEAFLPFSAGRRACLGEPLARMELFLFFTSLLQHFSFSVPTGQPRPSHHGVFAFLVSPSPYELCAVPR

[18] = target: Cytochrome P450 2C9 (Homo sapiens, UniProt P11712); experiment: Inhibition of CYP2C9 (unknown origin); assay type: ADME
Sequence of Cytochrome P450 2C9 (P11712 whole entry): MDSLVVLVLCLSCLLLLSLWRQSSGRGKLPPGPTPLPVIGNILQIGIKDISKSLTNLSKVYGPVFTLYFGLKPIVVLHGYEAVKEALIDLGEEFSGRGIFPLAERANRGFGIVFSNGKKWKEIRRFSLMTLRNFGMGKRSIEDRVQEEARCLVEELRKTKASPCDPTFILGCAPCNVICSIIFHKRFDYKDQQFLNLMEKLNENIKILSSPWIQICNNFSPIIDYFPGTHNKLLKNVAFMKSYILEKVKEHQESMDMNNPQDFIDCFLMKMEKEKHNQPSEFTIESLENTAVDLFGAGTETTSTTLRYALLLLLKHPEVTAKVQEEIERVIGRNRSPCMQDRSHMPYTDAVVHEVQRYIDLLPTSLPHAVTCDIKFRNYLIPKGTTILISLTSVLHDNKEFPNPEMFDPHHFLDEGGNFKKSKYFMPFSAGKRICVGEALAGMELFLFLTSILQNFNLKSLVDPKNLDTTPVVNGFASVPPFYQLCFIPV

[19] = target: T2, Cytochrome P450 1A2 (Homo sapiens, UniProt P05177); experiment: Inhibition of CYP1A2 (unknown origin); assay type: ADME
T2 sequence (P05177 whole entry): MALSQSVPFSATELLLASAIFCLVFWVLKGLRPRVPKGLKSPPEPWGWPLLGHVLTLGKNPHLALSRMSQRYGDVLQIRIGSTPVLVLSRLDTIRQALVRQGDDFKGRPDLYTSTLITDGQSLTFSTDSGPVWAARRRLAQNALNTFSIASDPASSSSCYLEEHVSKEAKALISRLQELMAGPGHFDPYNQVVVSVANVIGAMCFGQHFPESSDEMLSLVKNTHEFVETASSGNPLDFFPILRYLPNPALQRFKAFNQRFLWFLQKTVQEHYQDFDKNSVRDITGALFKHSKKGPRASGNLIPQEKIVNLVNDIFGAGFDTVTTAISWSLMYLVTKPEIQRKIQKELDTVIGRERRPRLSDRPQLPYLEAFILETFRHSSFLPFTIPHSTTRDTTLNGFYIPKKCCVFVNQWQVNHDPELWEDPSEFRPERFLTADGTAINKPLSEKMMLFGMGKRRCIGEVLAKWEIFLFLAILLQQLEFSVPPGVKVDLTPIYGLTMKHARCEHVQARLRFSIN

[20] = Fraction unbound in rat plasma; assay type: ADME, cell-free
[21] = tested on: KB; experiment: Antiproliferative activity against human KB cells; assay type: functional, cell-based

T1 sequence (P04626 whole entry, the tested form may be a part): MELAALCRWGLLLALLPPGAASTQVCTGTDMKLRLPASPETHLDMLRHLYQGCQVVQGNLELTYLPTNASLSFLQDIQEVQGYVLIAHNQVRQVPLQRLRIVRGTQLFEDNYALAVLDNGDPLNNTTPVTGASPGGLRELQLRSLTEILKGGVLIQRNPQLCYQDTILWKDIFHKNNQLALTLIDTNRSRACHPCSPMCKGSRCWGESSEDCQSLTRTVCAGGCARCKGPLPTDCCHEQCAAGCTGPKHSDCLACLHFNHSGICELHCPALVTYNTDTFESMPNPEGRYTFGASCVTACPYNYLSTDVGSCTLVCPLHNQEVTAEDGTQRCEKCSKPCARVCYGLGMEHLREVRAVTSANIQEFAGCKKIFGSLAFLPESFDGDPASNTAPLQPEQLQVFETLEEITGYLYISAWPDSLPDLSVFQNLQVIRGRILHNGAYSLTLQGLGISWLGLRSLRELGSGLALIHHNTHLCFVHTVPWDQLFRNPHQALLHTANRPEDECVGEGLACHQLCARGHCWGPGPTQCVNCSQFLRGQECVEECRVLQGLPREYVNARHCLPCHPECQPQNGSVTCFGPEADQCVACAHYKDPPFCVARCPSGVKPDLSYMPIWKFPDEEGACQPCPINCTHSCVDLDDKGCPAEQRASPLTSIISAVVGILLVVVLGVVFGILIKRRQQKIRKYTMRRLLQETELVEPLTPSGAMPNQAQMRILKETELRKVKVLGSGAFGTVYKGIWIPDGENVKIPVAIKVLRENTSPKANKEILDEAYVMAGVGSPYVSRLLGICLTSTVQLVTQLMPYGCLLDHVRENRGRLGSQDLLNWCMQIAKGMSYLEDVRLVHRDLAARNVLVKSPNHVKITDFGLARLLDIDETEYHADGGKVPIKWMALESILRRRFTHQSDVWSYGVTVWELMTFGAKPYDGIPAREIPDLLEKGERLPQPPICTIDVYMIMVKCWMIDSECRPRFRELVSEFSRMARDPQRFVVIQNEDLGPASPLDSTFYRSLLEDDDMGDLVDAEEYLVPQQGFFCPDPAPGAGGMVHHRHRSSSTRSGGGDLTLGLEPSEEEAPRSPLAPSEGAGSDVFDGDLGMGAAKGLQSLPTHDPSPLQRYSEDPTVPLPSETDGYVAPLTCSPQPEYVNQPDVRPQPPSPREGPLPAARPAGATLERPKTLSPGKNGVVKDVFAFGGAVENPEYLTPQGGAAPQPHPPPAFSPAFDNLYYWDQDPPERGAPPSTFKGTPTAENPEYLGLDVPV

- IC50 [1]: 1500 nM
SMILES: CNC(=O)CN(C)CCOc1cc2c(Nc3cccc(Cl)c3F)ncnc2cc1OC

- IC50 [1]: 250 nM
- IC50 [2]: 91 nM
SMILES: COCCNC(=O)CN1CCC(Oc2cc3c(Nc4cccc(Cl)c4F)ncnc3cc2OC)CC1

- IC50 [1]: 360 nM
SMILES: CNC(=O)CN1CCC(Oc2cc3c(Nc4cccc(Cl)c4)ncnc3cc2OC)CC1

- IC50 [1]: 550 nM
SMILES: CNC(=O)CCN1CCC(Oc2cc3c(Nc4cccc(Cl)c4F)ncnc3cc2OC)CC1

- AUC [4]: 19 µM·h
- logD [14]: 4
- fraction unbound [15]: 0.027
- fraction unbound [20]: 0.029
- IC50 [1]: 264 nM
SMILES: CNC(=O)CN1CCC(Oc2cc3c(Nc4ccc(F)c(Cl)c4)ncnc3cc2OC)CC1
- inhibition in vivo at 100 mg/kg [3]: 28%

The remaining lines, values behind:

SMILES: CNC(=O)CN1CCC(Oc2cc3c(Nc4cccc(Cl)c4F)ncnc3cc2OC)CC1 [SAPITINIB]
- inhibition in vivo at 100 mg/kg [3]: 76%
- AUC [4]: 66 µM·h
- hepatocyte CLint [5]: < 4.5 µL/min/1e6 cells
- bioavailability [6]: 89%
- Vd [7]: 0.2 L/kg
- clearance [8]: 1.1 mL/min/kg
- bioavailability [9]: 38%
- Vd [10]: 0.8 L/kg
- clearance [11]: 13 mL/min/kg
- solubility [12]: 17 µM (≈ 8.06 µg/mL)
- Papp A→B at 10 µM [13]: 15.9 ×10⁻⁶ cm/s
- logD [14]: 3.2
- fraction unbound [15]: 0.067
- IC50 [16]: > 10000 nM
- IC50 [17]: > 10000 nM
- IC50 [18]: > 10000 nM
- IC50 [19]: > 10000 nM
- fraction unbound [20]: 0.072
- IC50 [1]: 60 nM
- IC50 [2]: 14 nM

SMILES: CCNC(=O)CN1CCC(Oc2cc3c(Nc4cccc(Cl)c4F)ncnc3cc2OC)CC1
- IC50 [1]: 120 nM
- IC50 [2]: 33 nM

SMILES: CNC(=O)CN1CCC(Oc2cc3c(Nc4cccc(Cl)c4F)ncnc3cc2OC)C1 (racemic)
- IC50 [1]: 250 nM

SMILES: CNC(=O)CN1CCCC(Oc2cc3c(Nc4cccc(Cl)c4F)ncnc3cc2OC)C1 (racemic)
- IC50 [1]: 230 nM

SMILES: COc1cc2ncnc(Nc3cccc(Cl)c3F)c2cc1OC1CCN(CC(=O)NC(C)C)CC1
- IC50 [1]: 410 nM
- IC50 [2]: 110 nM

SMILES: COc1cc2ncnc(Nc3cccc(Cl)c3F)c2cc1OC1CCN(CC(N)=O)CC1
- inhibition in vivo at 100 mg/kg [3]: 36%
- AUC [4]: 19 µM·h
- logD [14]: 3.1
- IC50 [21]: 4 nM

SMILES: CNC(=O)CN1CCC(Oc2cc3c(Nc4cc(Cl)ccc4F)ncnc3cc2OC)CC1
- IC50 [1]: 860 nM

SMILES: CNC(=O)CN1CC(Oc2cc3c(Nc4cccc(Cl)c4F)ncnc3cc2OC)C1
- IC50 [1]: 1100 nM

SMILES: CNC(=O)CN1CCC(Oc2cc3c(Nc4ccc(F)c(Cl)c4F)ncnc3cc2OC)CC1
- IC50 [1]: 89 nM

SMILES: COc1cc2ncnc(Nc3cccc(Cl)c3F)c2cc1OC1CCN(CC(=O)N(C)C)CC1
- IC50 [1]: 670 nM
- IC50 [2]: 220 nM

— ChEMBL document CHEMBL2407034, “Discovery of AZD8931, an Equipotent, Reversible Inhibitor of Signaling by EGFR, HER2, and HER3 Receptors” (ACS Med Chem Lett, 2013)
